Measurements as given in BindingDB's records for doi:10.1016/j.bmcl.2012.07.086 (Shandong Academy of Sciences, 2012).

Biological target: T1, Aminopeptidase N (Sus scrofa, UniProt P15145)
T1 sequence (P15145 whole entry): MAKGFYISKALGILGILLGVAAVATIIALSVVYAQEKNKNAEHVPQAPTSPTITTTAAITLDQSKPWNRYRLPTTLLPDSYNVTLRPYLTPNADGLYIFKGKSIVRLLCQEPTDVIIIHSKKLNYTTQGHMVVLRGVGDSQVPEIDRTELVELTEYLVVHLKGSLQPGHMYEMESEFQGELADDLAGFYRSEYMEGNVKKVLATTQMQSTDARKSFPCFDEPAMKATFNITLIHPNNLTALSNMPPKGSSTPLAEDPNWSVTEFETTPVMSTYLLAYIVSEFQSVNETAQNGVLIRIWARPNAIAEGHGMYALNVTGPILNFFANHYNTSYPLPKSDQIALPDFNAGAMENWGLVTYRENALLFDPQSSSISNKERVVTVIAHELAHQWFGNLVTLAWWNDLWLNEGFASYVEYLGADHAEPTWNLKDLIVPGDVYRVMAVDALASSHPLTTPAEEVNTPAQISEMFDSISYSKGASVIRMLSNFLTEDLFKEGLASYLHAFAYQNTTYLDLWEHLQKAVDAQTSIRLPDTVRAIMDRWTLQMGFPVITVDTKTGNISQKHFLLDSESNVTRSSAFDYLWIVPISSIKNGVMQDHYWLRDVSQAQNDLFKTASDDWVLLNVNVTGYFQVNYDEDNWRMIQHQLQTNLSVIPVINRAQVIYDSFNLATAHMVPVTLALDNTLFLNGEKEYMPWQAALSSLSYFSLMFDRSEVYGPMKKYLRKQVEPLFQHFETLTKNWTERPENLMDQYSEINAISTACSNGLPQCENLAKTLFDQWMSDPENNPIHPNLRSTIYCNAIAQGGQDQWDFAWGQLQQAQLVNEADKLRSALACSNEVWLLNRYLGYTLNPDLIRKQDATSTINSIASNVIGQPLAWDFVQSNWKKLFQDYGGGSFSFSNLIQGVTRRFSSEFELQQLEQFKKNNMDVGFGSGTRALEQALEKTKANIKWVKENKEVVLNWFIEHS
Assay: Inhibition of porcine kidney microsome aminopeptidase using L-Leu-p-nitroanilide as substrate after 30 mins

Cc1cc(C/N=N/c2ccc([N+](=O)[O-])cc2[N+](=O)[O-])c(C)n1-c1ccc(S(N)(=O)=O)cc1
IC50: > 1 mM

O=C1NC(=O)C(N=Nc2cc([N+](=O)[O-])ccc2O)C(=O)N1
IC50: > 1 mM
